Laboratory results reported in patent US6638953B2, “Indole derivatives as 5-HT receptor antagonist” (SmithKline Beecham p.l.c., priority 1995, dated 2003).
Structures can show the parent of a compound that is named as a salt.

Experiments:
[1] = system: MCPP-induced Hypolocomotion; assay: Reversal of MCPP-induced hypolocomotion; assay type: in vivo; settings: po, procedure of WO 94/04533, read-out: ID50 (the source's name)
Source text: Reversal of MCPP-induced Hypolocomotion

Row | melting point [°C] | SMILES | ED50 [1] [mg/kg]
1 | 208 to 210 | CSc1cc2c(cc1C(F)(F)F)N(C(=O)Nc1cccc(-c3cccnc3)c1)CC2 [Example 3, 1-[(3-Pyridyl)-3-phenyl Carbamoyl]-5-methylthio-6-trifluoromethyl Indoline] | 0.5 to 5.5
2 | 211 to 212 | COc1cc2c(cc1C(F)(F)F)N(C(=O)Nc1ccc(C)c(-c3cccnc3)c1)CC2 [Example 7, 1-[4-Methyl-3-(3-Pyridyl)phenylcarbamoyl]-5-methoxy-6-trifluoromethyl Indoline] | 0.5 to 5.5
3 | 191 to 195 | COc1cc2c(cc1C(F)(F)F)N(C(=O)Nc1cc(F)cc(-c3cnccc3C)c1)CC2 [Example 21, 1-(3-Fluoro5-(4-methyl-3-pyridyl)phenylcarbamoyl)-5-methoxy-6-trifluoromethylindoline] | 0.5 to 5.5
4 | 221 to 223 | CSc1cc2c(cc1C(F)(F)F)N(C(=O)Nc1ccc(C)c(-c3cccnc3)c1)CC2 [Example 24, 1-(4-Methyl-3-(pyrid-3-yl)phenylcarbamoyl)-5-thiomethyl-6-trifluoromethyl Indoline] | 0.5 to 5.5
5 | 210 to 213 | COc1cc2c(cc1C(F)(F)F)N(C(=O)Nc1ccc(Cl)c(-c3cccnc3)c1)CC2 [Example 26, 1-(4-Chloro-3-(pyrid-3-yl)phenylcarbamoyl)-5-methoxy-6-trifluoromethylindoline] | 0.5 to 5.5
6 | 205 to 207 | CCc1cc(NC(=O)N2CCc3cc(OC)c(C(F)(F)F)cc32)cc(-c2cccnc2)c1 [Example 42, 1-[5-Ethyl-3-(pyrid-3-yl)phenylcarbamoyl]-5-methoxy-6-trifluoromethylindoline] | 0.5 to 5.5
7 | 193 to 194 | CSc1cc2c(cc1C(F)(F)F)N(C(=O)Nc1ccc(Oc3cccnc3)nc1)CC2 [Example 52] | 0.5 to 5.5
8 | 202 to 204 | COc1cc2c(cc1C(F)(F)F)N(C(=O)Nc1ccc(Oc3cccnc3)nc1)CC2 [Example 53, 5-Methoxy-6-trifluoromethyl-1-[6(pyridin-3-yloxy)pyridin-3-ylcarbamoyl]indoline] | 0.5 to 5.5

The next lines start with the molecule.

Row | SMILES | melting point [°C] | ED50 [1] [mg/kg]
9 | COc1cc2c(cc1C(F)(F)F)N(C(=O)Nc1cc(F)cc(-c3cccnc3)c1)CC2 [Example 8, 1-[3-Fluoro-5-(3-pyridyl)phenylcarbamoyl]-5-methoxy-6-trifluoromethyl Indoline] |  | 0.5 to 5.5
10 | CSc1cc2c(cc1C(F)(F)F)N(C(=O)Nc1cc(F)cc(-c3cccnc3)c1)CC2 [Example 25, 1-(3-Fluoro-5-(pyrid-3-yl)phenylcarbamoyl)5-thiomethyl-6-trifluoromethyl-indoline Hydrochloride] |  | 0.5 to 5.5
11 | COc1ccc(NC(=O)N2CCc3cc(OC)c(C(F)(F)F)cc32)cc1-c1cccnc1 [Example 31, 1-[4-Methoxy-3(pyrid-3-yl)phenylcarbamoyl]-5-methoxy-6-trifluoromethylindoline] |  | 0.5 to 5.5
12 | COc1cc2c(cc1C(F)(F)F)N(C(=O)Nc1cccc(-c3cncnc3)c1)CC2 [Example 40, 1-[3-(5-Pyrimidyl)phenylcarbamoyl]-5-methoxy-6-trifluoromethyl-indoline] |  | 0.5 to 5.5
13 | COc1cc2c(cc1C(F)(F)F)N(C(=O)Nc1cc(F)cc(-c3cncnc3)c1)CC2 [Example 78, 1-[3-Fluoro-5-(pyrimidin-5-yl)phenylcarbamoyl]-5-methoxy-6-trifluoromethyl Indoline] |  | 0.5 to 5.5
14 | COc1cc2c(cc1C(F)(F)F)N(C(=O)Nc1ccc(Cl)c(-c3cnccc3C)c1)CC2 [Example 79, 1-(4-Chloro-3-(4-methyl-3-pyridyl)phenylcarbamoyl]-5-methoxy-6-trifluoromethylindoline] |  | 0.5 to 5.5
15 | COc1cc2c(cc1C(F)(F)F)N(C(=O)Nc1cc3c(c(-c4cccnc4)c1)OCC3)CC2 [Example 80, 1-[2,3-Dihydro-7-(pyrid-3-yl)benzofuran-5-ylcarbamoyl]-5-methoxy-6-trifluoromethyl Indoline] |  | 0.5 to 5.5
